In patent US11000601B2, “Conjugated biological molecules, pharmaceutical compositions and methods” (OBI Pharma, Inc., priority 2016, dated 2021):
“And” between values parts separate entries of the source, which are not always exact repeats. Equal entries are not always repeated. Square brackets hold non-standard residues; d marks the D form. Peptide text beside a SMILES is read from it. * marks the point of attachment. Dolaproine = CO[C@@H]([C@@H]1CCCN1)[C@@H](C)C(=O)O; Dil = CC[C@H](C)[C@H](NC)[C@@H](CC(=O)O)OC; X1 = C[C@@H](N*)[C@@H](O)c1ccccc1; NMeV = CN[C@H](C(=O)O)C(C)C

Test system: MCF-7 (ATCC HTB-22) human breast adenocarcinoma
Assay: Xenograft tumor model of human breast adenocarcinoma MCF-7 in nude mice: tumor volume, T/C
Assay type: in vivo
Conditions: for Tumor Volume, individual mouse: mice No. 1-6
Method: In a xenograft tumor model of human breast adenocarcinoma, MCF-7 (ATCC HTB-22) cells were subcutaneously (SC) implanted (2.0×10^7 cells in 1:1 matrigel/media mixture at 0.2 mL/mouse) into the right flank of female athymic (nu/nu) nude mice. Supplemental injections of estradiol cyclopentyl propionate (100 μg/mouse) were administered subcutaneously between the scapulae twice weekly, from one week prior to cell implantation to study completion. Tumor-implanted mice were divided into eleven treatment groups, each group containing six animals, and test agent administrations were initiated one day after cell implantation (denoted as Day 1). 3.1 Test Substances and Dosing Pattern
Two control groups received intravenous injections of vehicle (25 mM Sodium Citrate, pH 6.5+100 mM NaCl) once weekly for either six weeks (group 1) or two weeks (group 2).
Human breast adenocarcinoma tumor cell line, MCF-7 (ATCC HTB-22, breast adenocarcinoma), was provided by the Sponsor. The tumor cells were prepared and cultured by the Sponsor (1×10^8 cells/mL), and 0.2 mL MCF-7 tumor cell inoculum containing 2×10^7 cells (mixture of matrigel and medium; 1:1) was implanted subcutaneously in the right flank of each mouse.
Female (nu/nu) nude mice aged 6-7 weeks obtained from BioLasco Taiwan (under Charles River Laboratories Licensee) were used. The animals were housed in individually ventilated cages (IVG, 36 Mini Isolator System). The allocation for 3-5 animals was 27×20×14 in cm. All animals were maintained in a hygienic environment under controlled temperature (20-24° C.) and humidity (30-70%) with 12-hour light/dark cycle. Free access to standard lab diet (Oriental Yeast Co., Ltd., Japan) and autoclaved tap water were granted. All aspects of this work including housing, experimentation, and animal disposal were performed in general accordance with the “Guide for the Care and Use of Laboratory Animals: Eighth Edition” (National Academies Press, Washington, D.C., 2011) in our AAALAC-accredited laboratory animal facility. In addition, the animal care and use protocol was reviewed and approved by the IACUC at Eurofins Panlabs Taiwan, Ltd.
The tumor volumes, body weights, mortality, and signs of overt toxicity were monitored and recorded twice weekly for 77 days. Tumor volume (mm^3) was calculated according to the formula for a prolate ellipsoid: length (mm)×[width (mm)]^2×0.5. Tumor growth inhibition was calculated as T/C (treatment/control)×100%. A T/C value≤42% was considered significant anti-tumor activity. Two-way ANOVA followed by Bonferroni test was used to ascertain the statistical significance of groups compared to respective vehicle control (*p<0.05).

[1] = 0.057 mg/kg × 6, IV, once weekly, Day 1
[2] = 0.057 mg/kg × 6, IV, once weekly, Day 5
[3] = 0.057 mg/kg × 6, IV, once weekly, Day 8
[4] = 0.057 mg/kg × 6, IV, once weekly, Day 12
[5] = 0.057 mg/kg × 6, IV, once weekly, Day 15
[6] = 0.057 mg/kg × 6, IV, once weekly, Day 19
[7] = 0.057 mg/kg × 6, IV, once weekly, Day 22
[8] = 0.057 mg/kg × 6, IV, once weekly, Day 26
[9] = 0.057 mg/kg × 6 IV once weekly, Day 29
[10] = 0.057 mg/kg × 6 IV once weekly, Day 33
[11] = 0.057 mg/kg × 6 IV once weekly, Day 36
[12] = 0.057 mg/kg × 6 IV once weekly, Day 40
[13] = 0.057 mg/kg × 6 IV once weekly, Day 43
[14] = 0.057 mg/kg × 6 IV once weekly, Day 46
[15] = 0.057 mg/kg × 6 IV once weekly, Day 49
[16] = Gr. 11, 0.057 mg/kg × 6, IV, once weekly, Day 53
[17] = Gr. 11, 0.057 mg/kg × 6, IV, once weekly, Day 56
[18] = Gr. 11, 0.057 mg/kg × 6, IV, once weekly, Day 60
[19] = Gr. 11, 0.057 mg/kg × 6, IV, once weekly, Day 63
[20] = Gr. 11, 0.057 mg/kg × 6, IV, once weekly, Day 67
[21] = Gr. 11, 0.057 mg/kg × 6, IV, once weekly, Day 70
[22] = Gr. 11, 0.057 mg/kg × 6, IV, once weekly, Day 74
[23] = Gr. 11, 0.057 mg/kg × 6, IV, once weekly, Day 77

SMILES: CC[C@H](C)[C@@H]([C@@H](CC(=O)N1CCC[C@H]1[C@H](OC)[C@@H](C)C(=O)N[C@H](C)[C@@H](O)c1ccccc1)OC)N(C)C(=O)[C@@H](NC(=O)[C@@H](NC)C(C)C)C(C)C [MMAE, monomethyl auristatin E] (H-[NMeV]V[Dil][Dolaproine]-X1)
- anti-tumor activity (in words) (0.057 mg/kg IV once weekly for six weeks, during and for a short time after the dosing phase): modest-to-moderate anti-tumor activity
- % T/C [1]: 101%
- Tumor Volume, Mean [1]: 161 mm^3
- Tumor Volume, single mouse (No. 1-6) [1]: 141 mm^3 and 139 mm^3 and 162 mm^3 and 186 mm^3 and 152 mm^3 and 188 mm^3
- % T/C [2]: 97%
- Tumor Volume, Mean [2]: 119 mm^3
- Tumor Volume, single mouse (No. 1-6) [2]: 110 mm^3 and 123 mm^3 and 145 mm^3 and 104 mm^3 and 106 mm^3 and 128 mm^3
- % T/C [3]: 96%
- Tumor Volume, Mean [3]: 132 mm^3
- Tumor Volume, single mouse (No. 1-6) [3]: 121 mm^3 and 125 mm^3 and 139 mm^3 and 131 mm^3 (2×) and 146 mm^3
- % T/C [4]: 71%
- Tumor Volume, Mean [4]: 114 mm^3
- Tumor Volume, single mouse (No. 1-6) [4]: 101 mm^3 and 104 mm^3 and 133 mm^3 and 115 mm^3 and 103 mm^3 and 129 mm^3
- % T/C [5]: 72%
- Tumor Volume, Mean [5]: 116 mm^3
- Tumor Volume, single mouse (No. 1-6) [5]: 102 mm^3 and 101 mm^3 and 127 mm^3 and 105 mm^3 and 137 mm^3 and 121 mm^3
- % T/C [6]: 64%
- Tumor Volume, Mean [6]: 130 mm^3
- Tumor Volume, single mouse (No. 1-6) [6]: 137 mm^3 and 113 mm^3 and 125 mm^3 and 121 mm^3 and 148 mm^3 and 135 mm^3
- % T/C [7]: 61%
- Tumor Volume, Mean [7]: 140 mm^3
- Tumor Volume, single mouse (No. 1-6) [7]: 123 mm^3 and 137 mm^3 (2×) and 138 mm^3 and 164 mm^3 and 143 mm^3
- % T/C [8]: 54%
- Tumor Volume, Mean [8]: 143 mm^3
- Tumor Volume, single mouse (No. 1-6) [8]: 135 mm^3 and 127 mm^3 and 119 mm^3 and 154 mm^3 and 179 mm^3 and 144 mm^3
- % T/C [9]: 54%
- Tumor Volume, Mean (0.057 mg/kg × 6 IV once weekly, Day 29, group mean): 151 mm^3
- Tumor Volume, individual mouse [9]: 146 mm^3 and 131 mm^3 and 119 mm^3 and 156 mm^3 and 194 mm^3 and 160 mm^3
- % T/C [10]: 55%
- Tumor Volume, Mean (0.057 mg/kg × 6 IV once weekly, Day 33, group mean): 168 mm^3
- Tumor Volume, individual mouse [10]: 162 mm^3 and 152 mm^3 and 133 mm^3 and 168 mm^3 and 216 mm^3 and 177 mm^3
- % T/C [11]: 59%
- Tumor Volume, Mean (0.057 mg/kg × 6 IV once weekly, Day 36, group mean): 192 mm^3
- Tumor Volume, individual mouse [11]: 171 mm^3 and 154 mm^3 and 152 mm^3 and 201 mm^3 and 256 mm^3 and 218 mm^3
- % T/C [12]: 61%
- Tumor Volume, Mean (0.057 mg/kg × 6 IV once weekly, Day 40, group mean): 210 mm^3
- Tumor Volume, individual mouse [12]: 184 mm^3 and 186 mm^3 and 156 mm^3 and 223 mm^3 and 285 mm^3 and 226 mm^3
- % T/C [13]: 63%
- Tumor Volume, Mean (0.057 mg/kg × 6 IV once weekly, Day 43, group mean): 232 mm^3
- Tumor Volume, individual mouse [13]: 186 mm^3 (2×) and 239 mm^3 and 242 mm^3 and 296 mm^3 and 240 mm^3
- % T/C [14]: 65%
- Tumor Volume, Mean (0.057 mg/kg × 6 IV once weekly, Day 46, group mean): 256 mm^3
- Tumor Volume, individual mouse [14]: 204 mm^3 and 261 mm^3 and 222 mm^3 and 258 mm^3 and 332 mm^3 and 259 mm^3
- % T/C [15]: 64%
- Tumor Volume, Mean (0.057 mg/kg × 6 IV once weekly, Day 49, group mean): 272 mm^3
- Tumor Volume, individual mouse [15]: 210 mm^3 and 270 mm^3 and 235 mm^3 and 301 mm^3 and 351 mm^3 and 264 mm^3
- % T/C (tumor volume, treatment/control) [16]: 64%
- Tumor Volume, Mean [16]: 290 mm^3
- Tumor Volume, individual animals No. 1-6 [16]: 216 mm^3 and 291 mm^3 and 268 mm^3 and 319 mm^3 and 373 mm^3 and 270 mm^3
- % T/C (tumor volume, treatment/control) [17]: 65%
- Tumor Volume, Mean [17]: 323 mm^3
- Tumor Volume, individual animals No. 1-6 [17]: 305 mm^3 and 249 mm^3 and 325 mm^3 and 329 mm^3 and 399 mm^3 and 328 mm^3
- % T/C (tumor volume, treatment/control) [18]: 65%
- Tumor Volume, Mean [18]: 357 mm^3
- Tumor Volume, individual animals No. 1-6 [18]: 312 mm^3 and 262 mm^3 and 383 mm^3 and 373 mm^3 and 453 mm^3 and 358 mm^3
- % T/C (tumor volume, treatment/control) [19]: 71%
- Tumor Volume, Mean [19]: 421 mm^3
- Tumor Volume, individual animals No. 1-6 [19]: 286 mm^3 and 422 mm^3 and 494 mm^3 and 418 mm^3 and 496 mm^3 and 412 mm^3
- % T/C (tumor volume, treatment/control) [20]: 71%
- Tumor Volume, Mean [20]: 469 mm^3
- Tumor Volume, individual animals No. 1-6 [20]: 307 mm^3 and 458 mm^3 and 598 mm^3 and 455 mm^3 and 505 mm^3 and 489 mm^3
- % T/C (tumor volume, treatment/control) [21]: 73%
- Tumor Volume, Mean [21]: 512 mm^3
- Tumor Volume, individual animals No. 1-6 [21]: 333 mm^3 and 591 mm^3 and 603 mm^3 and 493 mm^3 and 523 mm^3 and 528 mm^3
- % T/C (tumor volume, treatment/control) [22]: 79%
- Tumor Volume, Mean [22]: 584 mm^3
- Tumor Volume, individual animals No. 1-6 [22]: 365 mm^3 and 625 mm^3 and 681 mm^3 and 570 mm^3 and 568 mm^3 and 695 mm^3
- % T/C (tumor volume, treatment/control) [23]: 83%
- Tumor Volume, Mean [23]: 736 mm^3
- Tumor Volume, individual animals No. 1-6 [23]: 410 mm^3 and 922 mm^3 and 760 mm^3 and 632 mm^3 and 807 mm^3 and 887 mm^3
